Structures are written as SMILES.

Consider one molecule from patent US20040126325A1, “Medicinal aerosol solution formulation products with improved chemical stability” (priority 2002, published 2004).

A short description of series [1]: Stability of Budesonide solution formulations: recovery of budesonide after storage. The series is classed as physicochemical. As to the method:
Cans of Budesonide in solution according to the following formulation were manufactured: […]
Budesonide 400 mg (200 mcg/shot)
Anodized and lacquered cans and non ethanol extracted valves were utilized. The cans were put on stability at 50° C. (inverted)
Cans with the same formulation were prepared and in this case ethanol extracted valves were utilized.

A short description of series [2]: Stability of Budesonide solution formulations: determination of degradation products (related substances). The series is classed as physicochemical. As to the method: Two cans of anodized aluminum prepared as per example 2 were submitted to the determination of degradation products of the active ingredient.
It was noticed in this way that after a lag time of 6 months at 40° C. the degradation rate increases with the same pattern seen in the first example. […] An explanation of the process is that peroxides may leach into the solution after a while, thus starting a radicalic degradation of Budesonide.

With `CCCC1O[C@@H]2C[C@H]3[C@@H]4CCC5=CC(=O)C=C[C@]5(C)[C@H]4[C@@H](O)C[C@]3(C)[C@]2(C(=O)CO)O1` (stereo partly shown) [Budesonide], the Degradation observed result in series [1] (anodized and lacquered cans, non ethanol extracted valves, 50° C. inverted) is reported as “high degree of degradation”. Besides, the “Stability of the solution formulation” value in series [1] (ethanol extracted valves, compared with non extracted valves (Example 1)) was “much higher stability”. Moreover, the “Lag time after which the degradation rate increases” value in series [2] (40° C., anodized aluminum cut edge cans, ethanol extracted valves, inverted, does not occur if stored upright) was 6 months. The “Stability of the solution” value in series [2] (finishing of the cans changed from cut edge to rolled neck) was “greatly increased”.
